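Grown in 96-well plates, cells were treated for 48 hours with each compound at five concentrations. Insufficient inhibition: endpoint recorded as highest concentration tested. GI50: concentration for 50% inhibition of growth.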 Activity calls are given as the source filed them. Cut-off read from the data, not from the text of the source: active = GI50 up to about 1.1 µM and inactive = higher.
Key:
Assay in all cases: NCI-60 cell line screen, 48 h
SK-MEL-2 = tested on: SK-MEL-2
ACHN = tested on: ACHN
MOLT-4 = tested on: MOLT-4
TK-10 = tested on: TK-10
UO-31 = tested on: UO-31
SW-620 = tested on: SW-620
UACC-257 = tested on: UACC-257
HL-60 = tested on: HL-60
NCI-H522 = tested on: NCI-H522
KM12 = tested on: KM12
SNB-78 = tested on: SNB-78
DLD-1 = tested on: DLD-1
DMS-273 = tested on: DMS-273
Malme-3M = tested on: Malme-3M
SNB-75 = tested on: SNB-75
SR = tested on: SR
CAKI-1 = tested on: CAKI-1
HCC 2998 = tested on: HCC 2998
LXFL 529 = tested on: LXFL 529
OVCAR-8 = tested on: OVCAR-8
HOP-62 = tested on: HOP-62
OVCAR-3 = tested on: OVCAR-3
NCI-H226 = tested on: NCI-H226
XF498 = tested on: XF498
HOP-92 = tested on: HOP-92
K562 = tested on: K562
SK-MEL-28 = tested on: SK-MEL-28
NCI-H460 = tested on: NCI-H460
OVCAR-4 = tested on: OVCAR-4
786-0 = tested on: 786-0
HT-29 = tested on: HT-29
RXF 631 = tested on: RXF 631
KM-20L2 = tested on: KM-20L2
SF-295 = tested on: SF-295
M14 = tested on: M14
HCT-15 = tested on: HCT-15
RPMI-8226 = tested on: RPMI-8226
SNB-19 = tested on: SNB-19
LOX IMVI = tested on: LOX IMVI
HCT-116 = tested on: HCT-116
UACC-62 = tested on: UACC-62
NCI-H23 = tested on: NCI-H23
IGROV-1 = tested on: IGROV-1
SK-OV-3 = tested on: SK-OV-3
COLO 205 = tested on: COLO 205
SF-539 = tested on: SF-539
A549 = tested on: A549
SF-268 = tested on: SF-268
OVCAR-5 = tested on: OVCAR-5
SN12C = tested on: SN12C
CCRF-CEM = tested on: CCRF-CEM
SK-MEL-5 = tested on: SK-MEL-5
RXF 393 = tested on: RXF 393
U-251 = tested on: U-251
M19-MEL = tested on: M19-MEL
HOP-18 = tested on: HOP-18
A498 = tested on: A498
EKVX = tested on: EKVX
DMS-114 = tested on: DMS-114
MCF7 = tested on: MCF7
T47D = tested on: T47D
MDA-MB-231 = tested on: MDA-MB-231
DU-145 = tested on: DU-145
BT-549 = tested on: BT-549
Hs-578T = tested on: Hs-578T
MDA-MB-435 = tested on: MDA-MB-435

Measured: GI50

O=C(CCC(=O)Nc1cccc(Cl)c1)CC(=O)c1ccc(Cl)cc1
> 100 µM: HCT-15
inactive: SK-MEL-2 > 100 µM | ACHN > 100 µM | MOLT-4 > 100 µM | TK-10 > 100 µM | UO-31 > 100 µM | SW-620 > 100 µM | UACC-257 > 100 µM | HL-60 > 100 µM | NCI-H522 > 100 µM | KM12 > 100 µM | SNB-78 > 100 µM | DLD-1 > 10 µM | DMS-273 > 100 µM | Malme-3M > 100 µM | SNB-75 > 100 µM | SR > 100 µM | CAKI-1 > 100 µM | HCC 2998 > 100 µM | LXFL 529 > 100 µM | OVCAR-8 > 100 µM | HOP-62 > 100 µM | OVCAR-3 > 100 µM | NCI-H226 > 100 µM | XF498 > 100 µM | HOP-92 > 100 µM | K562 > 100 µM | SK-MEL-28 > 100 µM | NCI-H460 > 100 µM | OVCAR-4 > 100 µM | 786-0 > 100 µM | HT-29 > 100 µM | RXF 631 > 100 µM | KM-20L2 > 100 µM | SF-295 > 100 µM | M14 > 100 µM | RPMI-8226 > 100 µM | SNB-19 > 100 µM | LOX IMVI > 100 µM | HCT-116 > 100 µM | UACC-62 > 100 µM | NCI-H23 > 100 µM | IGROV-1 > 100 µM | SK-OV-3 > 100 µM | COLO 205 > 100 µM | SF-539 > 100 µM | A549 > 100 µM | SF-268 > 100 µM | OVCAR-5 > 100 µM | SN12C > 100 µM

C/C(=N\NS(=O)(=O)c1ccc([N+](=O)[O-])cc1)c1ccc[n+]([O-])n1
inactive: SK-MEL-2 1.92 µM | ACHN 2.44 µM | MOLT-4 2.92 µM | TK-10 11.6 µM | CCRF-CEM 3.05 µM | UO-31 2.64 µM | SW-620 2.29 µM | UACC-257 3.8 µM | HL-60 1.81 µM | SK-MEL-5 2.35 µM | NCI-H522 1.95 µM | KM12 2.39 µM | SNB-78 4.48 µM | RXF 393 1.34 µM | DLD-1 2.58 µM | Malme-3M 3.09 µM | SNB-75 1.95 µM | SR 3.92 µM | CAKI-1 2.32 µM | HCC 2998 9.46 µM | LXFL 529 2.21 µM | U-251 1.86 µM | OVCAR-8 1.76 µM | HOP-62 2.09 µM | OVCAR-3 2.23 µM | NCI-H226 1.77 µM | XF498 2.64 µM | HOP-92 2.94 µM | M19-MEL 2.04 µM | K562 3.33 µM | SK-MEL-28 3.21 µM | OVCAR-4 1.35 µM | 786-0 2.36 µM | HT-29 2.11 µM | HOP-18 11.6 µM | KM-20L2 4.48 µM | SF-295 1.9 µM | M14 1.8 µM | RPMI-8226 2.16 µM | SNB-19 3.24 µM | A498 1.98 µM | HCT-116 1.72 µM | UACC-62 1.21 µM | NCI-H23 1.7 µM | EKVX 6.9 µM | DMS-114 1.77 µM | IGROV-1 3.79 µM | SK-OV-3 2.64 µM | COLO 205 2.67 µM | SF-539 2.08 µM | A549 2.19 µM | SF-268 2.33 µM | OVCAR-5 2.63 µM | SN12C 2.97 µM
active: DMS-273 0.764 µM | NCI-H460 0.776 µM | LOX IMVI 0.912 µM
5.16 µM: HCT-15

CC12CCCC(C#N)(C1)OC2=O (stereo not given)
inactive: SK-MEL-2 > 100 µM | ACHN > 100 µM | MOLT-4 > 100 µM | TK-10 > 100 µM | CCRF-CEM > 100 µM | UO-31 > 100 µM | SW-620 > 100 µM | UACC-257 > 100 µM | HL-60 > 100 µM | SK-MEL-5 > 100 µM | NCI-H522 > 100 µM | KM12 > 100 µM | SNB-78 > 100 µM | RXF 393 > 100 µM | DLD-1 > 100 µM | DMS-273 > 100 µM | Malme-3M > 100 µM | SNB-75 > 100 µM | SR > 100 µM | CAKI-1 > 100 µM | LXFL 529 > 100 µM | U-251 > 100 µM | OVCAR-8 > 100 µM | HOP-62 > 100 µM | OVCAR-3 > 100 µM | NCI-H226 > 100 µM | XF498 > 100 µM | HOP-92 > 100 µM | M19-MEL > 100 µM | K562 > 100 µM | SK-MEL-28 > 100 µM | NCI-H460 > 100 µM | OVCAR-4 > 100 µM | 786-0 > 100 µM | HT-29 > 100 µM | RXF 631 > 100 µM | KM-20L2 > 100 µM | SF-295 > 100 µM | M14 > 100 µM | SNB-19 > 100 µM | A498 > 100 µM | HCT-116 > 100 µM | UACC-62 > 100 µM | NCI-H23 > 100 µM | EKVX > 100 µM | IGROV-1 > 100 µM | SK-OV-3 > 100 µM | SF-539 > 100 µM | A549 > 100 µM | SF-268 > 100 µM | OVCAR-5 > 100 µM | SN12C > 100 µM

CCCCCCCCCCCOC(=S)NC(C)C
17.5 µM: HCT-15
inactive: SK-MEL-2 19.2 µM | ACHN 19.3 µM | MOLT-4 16.7 µM | TK-10 28.2 µM | CCRF-CEM 23.5 µM | UO-31 15.8 µM | SW-620 16.3 µM | UACC-257 19.1 µM | HL-60 15.6 µM | SK-MEL-5 17 µM | NCI-H522 18.2 µM | KM12 19.7 µM | SNB-78 33.9 µM | RXF 393 19.8 µM | DLD-1 21.4 µM | DMS-273 18.3 µM | Malme-3M 21.8 µM | SNB-75 23.1 µM | SR 20.5 µM | CAKI-1 19 µM | HCC 2998 17 µM | LXFL 529 25.8 µM | U-251 15.8 µM | OVCAR-8 16.6 µM | HOP-62 20.1 µM | XF498 16.7 µM | HOP-92 14.1 µM | M19-MEL 24.9 µM | K562 21.2 µM | SK-MEL-28 20.7 µM | NCI-H460 21.3 µM | OVCAR-4 24.8 µM | 786-0 19.1 µM | HT-29 17.1 µM | HOP-18 27.5 µM | KM-20L2 16 µM | SF-295 21 µM | M14 23.2 µM | RPMI-8226 14 µM | SNB-19 29.6 µM | A498 19.6 µM | LOX IMVI 16.7 µM | HCT-116 17.5 µM | UACC-62 15.5 µM | NCI-H23 19.3 µM | EKVX 20.9 µM | DMS-114 17.8 µM | IGROV-1 20.6 µM | SK-OV-3 19.3 µM | SF-539 18.3 µM | A549 21.4 µM | SF-268 21.2 µM | OVCAR-5 24.7 µM | SN12C 16.1 µM

COc1ccc2c(c1)C=C([N+](=O)[O-])C(C1OC(C)(C)OC1C1COC(C)(C)O1)O2 (stereo not given)
active: CCRF-CEM 0.386 µM | NCI-H522 0.731 µM
1.95 µM: HCT-15
inactive: SK-MEL-2 1.87 µM | ACHN 2.4 µM | MOLT-4 1.79 µM | TK-10 18.4 µM | UO-31 13.1 µM | SW-620 2.26 µM | UACC-257 2.77 µM | HL-60 1.86 µM | SK-MEL-5 2.82 µM | KM12 2 µM | SNB-78 2.79 µM | RXF 393 1.98 µM | DLD-1 1.51 µM | MCF7 2.54 µM | DMS-273 2.9 µM | Malme-3M 2.31 µM | SNB-75 14.5 µM | SR 1.55 µM | T47D 12 µM | CAKI-1 4.51 µM | HCC 2998 13.3 µM | LXFL 529 3.81 µM | U-251 3.01 µM | OVCAR-8 2.85 µM | HOP-62 20 µM | OVCAR-3 8.69 µM | NCI-H226 14.6 µM | XF498 11 µM | HOP-92 16.1 µM | M19-MEL 1.63 µM | K562 1.44 µM | SK-MEL-28 1.74 µM | NCI-H460 3.64 µM | OVCAR-4 8.17 µM | 786-0 12.8 µM | HT-29 1.97 µM | MDA-MB-231 2.36 µM | HOP-18 24.7 µM | KM-20L2 5.08 µM | SF-295 7.89 µM | M14 2.07 µM | RPMI-8226 1.67 µM | SNB-19 11.9 µM | A498 18 µM | LOX IMVI 1.49 µM | HCT-116 1.79 µM | UACC-62 1.82 µM | NCI-H23 11.6 µM | EKVX 13.8 µM | DU-145 16 µM | BT-549 2.74 µM | DMS-114 2.88 µM | IGROV-1 14.6 µM | SK-OV-3 11 µM | COLO 205 10.8 µM | SF-539 5.66 µM | A549 18 µM | Hs-578T 4.18 µM | MDA-MB-435 3.06 µM | SF-268 3.5 µM | OVCAR-5 8.04 µM | SN12C 4.91 µM
